Experimental data reported in US20060127315A1, “Methods of treating humans undergoing injection of a contrast agent” (SHIVA BIOMEDICAL, L.L.C., priority 2004, published 2006).

Assay: Pharmacokinetics of deferiprone, single oral dose crossover study in subjects with mild renal insufficiency
Format: in vivo, human
Conditions: patients with mild to moderate renal insufficiency
Method: Blood samples were collected immediately prior to and for a period of 48 hours after each dose and the concentrations of deferiprone determined.

Cc1c(O)c(=O)ccn1C [deferiprone, 1,2-dimethyl-3-hydroxy-pyrid-4-one]
pharmacokinetic profile compared with patients with normal renal function: very similar to that reported with patients with normal renal function
